Measurements taken from patent US9078851B2, “Composition for preventing or treating a spinal cord injury” (UNIVERSITY-INDUSTRY COOPERATION GROUP OF KYUNG HEE, priority 2009, dated 2015).

How the values were obtained:
Assay type in all cases: in vivo, rat
[1] = test system: M2 (ED1 positive, CD206 positive) phenotype macrophages; assay: MACS assay of M1/M2 phenotype macrophages in spinal cord injury model; conditions: tail vein injection, five days after spinal cord injury
Method: For the present experiment, male white mice (Sprague-Dawley 240-250 g, 7 weeks, 10 mice) were under general anesthetics by an intraperitoneal injection of Ketamin (80 mg/kg, Yuhan Corporation) and Rompun (7.4 mg/kg, Bayer Korea Corporation). Laminectomy was performed at spine T9-10 level to expose a spinal cord keeping intact dura. And then, rat was put on Spinal cord dropping device (NYU); spine processes at T8 and T11 sites were fixed by using a clamp, respectively; then, a rod (diameter 2 mm, weight 10 g) was dropped from 25 mm height vertical to dorsal part of spinal cord followed by suturing injury site muscle and skin. […]
Microglia and macrophage have an inflammatory macrophage phenotype (M1) and selectively activated macrophage phenotype (M2). […] MACS (Miltenyi Biotec, Bergisch Gladbach) assay was performed in order to determine a quantitative amount of M1 (ED1 positive, CD206 negative) and M2 (ED1 positive, CD206 positive) phenotype macrophages after Substance P-injection in a spinal cord injury model.
At immediately, 1 d, 2d, Substance P or saline (the same volume without Substance P) was injected to a tail vein after a spinal cord injury, using the same method as (1) of Example 1. […] Magnetically labeled cells were collected by washing the column and then counted. […]

[2] = test system: spinal cord injury site tissue; assay: Immunofluorescence staining of CSPG, CD206, GFAP, NF200 after spinal cord injury; conditions: tail vein injection
Method: (§1) For the present experiment, male white mice (Sprague-Dawley 240-250 g, 7 weeks, 10 mice) were under general anesthetics by an intraperitoneal injection of Ketamin (80 mg/kg, Yuhan Corporation) and Rompun (7.4 mg/kg, Bayer Korea Corporation). Laminectomy was performed at spine T9-10 level to expose a spinal cord keeping intact dura. And then, rat was put on Spinal cord dropping device (NYU); spine processes at T8 and T11 sites were fixed by using a clamp, respectively; then, a rod (diameter 2 mm, weight 10 g) was dropped from 25 mm height vertical to dorsal part of spinal cord followed by suturing injury site muscle and skin. The rat of Sham-operated control group was performed only laminectomy at same area without damaging spinal cord injury (marked by ‘sham” in figures; hereinafter, the same as above).
(§2) Substance P (marked by ‘SP’ in figures; hereinafter, the same as above) dissolved in saline of 5 nmol/kg concentration was injected through tail vein at immediately, 24 hours, and 48 hours after a spinal cord injury for experimental groups. At sham control group, same volume of saline (marked by ‘vehicle’ in figures; hereinafter, the same as above) without Substance P was injected at same time points. Operation were performed on an electric heating pad of 37° C., and then rat were transferred to cage after awake from the anesthetic. • (2) Preparation of Tissue
Then, perfusion was performed by opening the of heart and pumping 200 ml of a physiological saline and 4% paraformaldehyde (Sigma) through right atrium of heart. Then, a segment of spinal cord with injury site was removed and put in 4% paraformaldehyde at 4° C. for 6 hours. Subsequently, spinal cords were washed with saline, and placed in 30% sucrose (Sigma) solution at 4° C. overnight. Next day, spinal cords were cut in a length of 1.5 cm in which the injured site is localized in epicenter followed by embedding in OCT compound (optimal cutting temperature compound, Sakura). The fixed tissues were cut in a thickness of 10 μm (Longitudinal section) or 20 μm (cross section) with Cryostat (Leica) and attached to slide. Finally, slides were stored at −80° C. • (3) Immunofluorescence Staining
The selected sections for immunofluorescence staining were washed with saline for three times, and blocked with 10% horse serum (Jackson ImmunoResearch) for 1 hour at a room temperature. ED1 antibody (1:200, Milipore), a marker for activated microglia/macrophage, was treated and placed at 4° C. overnight. Next day, slides were washed with saline, and treated with a secondary antibody conjugated with Alexa Fluor 488 (1:400, Invitrogen) or cyanine 3 (1:500, Jackson ImmunoResearch) for 1 hour at room temperature. […]

[3] = test system: apoptosis of nerve cells and oligodendrocytes; assay: TUNEL staining of apoptosis at spinal cord injury site; conditions: tail vein injection
Method: as §1
as §2, with “Tissue […]” for “Tissue”

[4] = two weeks after spinal cord injury

In the case of Substance P, the “CD-206 positive percentage as compared with the control” value [1] is reported as “about 6.5 times”, the “activated microglia/macrophages CD-206 positive” value [1] is reported as 58.7% and the GFAP-positive cells distribution ([2]; after spinal cord injury) is reported as “excluded from CD206-positive spinal cord injury site”. The “CD206 and ED1 double-positive cells” value [2, 4] was “gathered around an injury site”, the “CSPG-positive signal around an injury site” value [2, 4] was “significantly decreased” and the neurofilament protein ([2]; vs control, exposed to CD206-positive cell field) was “well preserved”. For the same substance, the apoptosis of oligodendrocytes ([3]; five days after damaging) was “significantly decreased” and the “apoptosis of nerve cells” value ([3]; one day after damaging) was “decreased”.
